Target: T1, STAT5b (Homo sapiens, UniProt P51692)
T1 sequence (P51692 1-787): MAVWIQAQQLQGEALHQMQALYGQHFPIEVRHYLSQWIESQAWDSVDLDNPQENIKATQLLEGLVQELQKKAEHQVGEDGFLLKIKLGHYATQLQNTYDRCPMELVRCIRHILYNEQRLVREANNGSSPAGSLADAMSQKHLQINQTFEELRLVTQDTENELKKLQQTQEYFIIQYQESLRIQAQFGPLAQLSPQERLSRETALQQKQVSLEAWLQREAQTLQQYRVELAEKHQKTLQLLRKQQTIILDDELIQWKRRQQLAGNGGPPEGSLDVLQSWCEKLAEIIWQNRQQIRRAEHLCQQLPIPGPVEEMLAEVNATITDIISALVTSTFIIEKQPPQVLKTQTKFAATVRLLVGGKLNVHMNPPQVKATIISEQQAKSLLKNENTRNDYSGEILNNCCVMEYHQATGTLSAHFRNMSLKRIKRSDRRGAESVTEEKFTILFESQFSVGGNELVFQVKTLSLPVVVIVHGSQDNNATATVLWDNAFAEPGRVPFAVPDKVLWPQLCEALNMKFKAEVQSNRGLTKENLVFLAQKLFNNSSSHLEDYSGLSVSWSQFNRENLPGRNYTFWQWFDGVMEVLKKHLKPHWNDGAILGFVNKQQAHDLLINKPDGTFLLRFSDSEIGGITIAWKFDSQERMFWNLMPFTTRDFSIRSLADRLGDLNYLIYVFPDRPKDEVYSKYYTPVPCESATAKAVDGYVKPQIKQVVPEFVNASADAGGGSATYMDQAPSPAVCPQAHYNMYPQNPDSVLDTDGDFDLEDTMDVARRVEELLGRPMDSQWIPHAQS
Experiment: HTRF assay, STAT5b
Type: binding
Conditions: STAT5b 80 nM, without reducing agent, 1 h
Description: The azo dyes PPADS and iso‐PPADS have a deep red color in aqueous solution. […] In order to exclude this possibility, we established homogeneous time‐resolved fluorescence resonance energy transfer (HTRF) assays to confirm the degree of binding between STAT4, STAT5a, and STAT5b and the respective 5‐carboxyfluorescein‐labeled binding peptides used in the FP assay. In addition, an HTRF assay was established for STAT3, one of the STAT proteins targeted to a lesser extent in FP assays, as a specificity control (Figure 1B,C). The STAT protein constructs each contain a 6x‐His‐tag.^[ [15], [16], [17], [22] ^] A Tb^3+‐cryptate fused to an anti‐6x‐His antibody was chosen as the long‐lived fluorescent donor, while the carboxyfluorescein linked to the respective STAT‐binding peptides served as the acceptor (Figure 2A). Emission was measured with a time delay of 60 μs after excitation, allowing any initial compound fluorescence to decay beforehand. […]
Screening of chemical libraries comprising approximately 5000 known bioactive compounds in fluorescence polarization-based assays against phosphorylation-dependent protein-protein interaction domains, including STAT proteins, has been described.[1] […]
Fluorescence polarization assays
Competitive fluorescence polarization (FP) assays for STAT1,[2] […] Briefly, peptide binding to proteins was analyzed using the following carboxyfluorescein (CF) -labelled pepti des at a concentration of 10 nM: STAT1: 5-CF-GpYDKPHVL-OH, STAT3: 5-CF-GpYLPQTV -NH2, STAT4: 5-CF-GpYLPQNID-OH, STAT5a and STAT5b: 5-CF-GpYLVLDKW-OH, STAT6: 5- […]
CFGp[…]-OH. […] FP was measured using an Infinite F500 plate reader (Tecan) and measurements were converted into percent inhibition according to the binding curve equation. Curves were plotted and best fits calculated using OriginPro […]
Homogenous time-resolved fluorescence (HTRF) assays for STAT3, STAT4, STAT5a and STAT5b were carried out using Cisbio Monoclonal Antibody Anti-6His-Tb Gold as the fluorescence donor (Perkin Elmer) and the corresponding CF-labelled binding peptide as the acceptor. […] The average reading from 3 wells was obtained. […]

**Q.** For `Cc1nc(/N=N/c2ccc(S(=O)(=O)O)cc2S(=O)(=O)O)c(COP(=O)(O)O)c(C=O)c1O` [PPADS, pyridoxalphosphate‐6‐azophenyl‐2',4'‐disulfonic acid], which IC50 is on record?
**A.** 1.22 ± 0.27 µM

**Q.** How did the IC50 turn out when `Cc1nc(/N=N/c2cc(S(=O)(=O)O)ccc2S(=O)(=O)O)c(COP(=O)(O)O)c(C=O)c1O` [iso‐PPADS] was run?
**A.** 0.8 ± 0.1 µM
